# Tests used:
# [1] = test system: A/Bayern/7/95 BVL006 (H1N1); assay: Plaque reduction assay (PRA) in MDCK cells; format: cell-based, influenza A H1N1; conditions: Influenza A virus, MDCK, A/Bayern/7/95 (H1N1), read-out: EC50 PRA A/Bay
# Method: (§1) Madin Darby Canine Kidney (MDCK) cells are seeded into six well tissue culture plates and grown to confluency via standard methods. Influenza viruses are diluted in a minimal volume of phosphate buffered saline supplemented with 0.2% bovine serum albumin to yield an estimated titre of 50–100 plaque forming units (pfu) per well. After adsorption to the MDCK cells for one hour at 37° C. in a 5% CO2 atmosphere the viral inocula is aspirated and replaced with viral growth media (minimal Eagle's media supplemented with BSA, trypsin and insulin/transferrin/selenium at optimal concentrations) containing sufficient agar or agarose (generally 1–2%) to cause the media to gel at room temperature and at 37° C. in a 5% CO2 atmosphere until plaques develop (generally 2–4 days). Plaques can be visualised with a suitable stain (e.g. 0.4% crystal violet in formal saline) before counting.
# [2] = test system: A/WSN/33 BVLV09 (H1N1); assay: Plaque reduction assay (PRA) in MDCK cells; format: cell-based, influenza A H1N1; conditions: A/WSN/33 (H1N1)
# Method: as §1
# [3] = test system: A/Victoria/3/75 BVLV017 (H3N2); assay: Plaque reduction assay (PRA) in MDCK cells; format: cell-based; conditions: Influenza A virus, H3N2, MDCK, read-out: EC50 PRA A/Vic, plaque reduction, A/Victoria/3/75 (H3N2)
# [4] = Rat lung retention assay (intra-tracheal dosing); format: in vivo; conditions: rat, in vivo, 0.1 mg/kg
# Method: Rodents are anaesthetised and dosed with compound of interest by the intra-tracheal route at a dose volume of 0.8 ml/kg. The rodent is then held in the vertical position until full recovery is achieved. […] Any analytical method suitable for detection of this type of compound may be used. The time at which levels of compound fall below the sensitivity of the analytical techniques identified will determine the residency time of the compound in lung tissue.
# Please note that all experiments included a co-dosed internal standard, namely compound 3 of International Patent Publication No. WO 02/20514, to permit comparison. The data are expressed as a ratio with respect to this compound, the structure of which is shown below.
# [5] = test system: B/Harbin/7/95 BVLV008; assay: Plaque reduction assay (PRA) in MDCK cells; format: cell-based; conditions: Influenza B virus, read-out: EC50 PRA B/Harb
# Method: as §1
# [6] = test system: A/Panama/2007/99 BVLV008 (H3N2); assay: Plaque reduction assay (PRA) in MDCK cells; format: cell-based
# [7] = test system: A/Sydney/5/97 BVLV015 (H3N2); assay: Plaque reduction assay (PRA) in MDCK cells; format: cell-based, influenza A H3N2; conditions: Influenza A virus, MDCK, A/Sydney/5/97 (H3N2), read-out: EC50 PRA A/Syd
# Method: as §1
# [8] = test system: A/New Caledonia/20/99 BVLV008 (H1N1); assay: Plaque reduction assay (PRA) in MDCK cells; format: cell-based
# [9] = test system: B/Hong Kong/5/72 BVLV012; assay: Plaque reduction assay (PRA) in MDCK cells; format: cell-based, influenza B; conditions: Influenza B virus, MDCK, read-out: EC50 PRA B/HongK
# Method: as §1
smiles,measurement,setting,value
"CC(=O)N[C@H]1[C@H]([C@H](O)[C@H](O)CO)OC(C(=O)O)=C[C@@H]1NC(=N)N [Compound A, 4-guanidino-2-deoxy-2,3-dehydro-N-acetylneuraminic acid]",EC50,[1],35 ng/mL
same,EC50 PRA A/WSN,[2],> 100 ng/mL
same,EC50,"[2]; Influenza A virus, MDCK",56 ng/mL
same,EC50,[3],5.5 ng/mL
same,Ratio Mean (lung) (cmpd)/PCT AU01/01128 compound 3,[4]; 48 h,0.26
same,Ratio Mean (lung) (cmpd)/PCT AU01/01128 compound 3,[4]; 168 h,0.08
same,EC50,[5],0.19 ng/mL
same,EC50,"[6]; Influenza A virus, H3N2, MDCK, read-out: EC50 PRA A/Pan, plaque reduction, A/Panama/2007/99 (H3N2)",2.7 ng/mL
same,EC50 PRA A/Pan,"[6]; plaque reduction, A/Panama/2007/99 (H3N2)",3 ng/mL
same,EC50,[7],2.4 ng/mL
same,EC50,"[8]; Influenza A virus, H1N1, MDCK, read-out: EC50 PRA A/New, plaque reduction, A/New Caledonia/20/99 (H1N1)",0.27 ng/mL
same,EC50 PRA A/New,"[8]; plaque reduction, A/New Caledonia/20/99 (H1N1)",0.23 ng/mL
same,EC50,[9],21 ng/mL

# Source: patent US7230028B2, “Dimeric compounds and their use as anti-viral agents” (priority 2001, dated 2007)
